Laboratory results reported in patent publication US20080255192A1, “Methods and Compositions for Selectin Inhibition” (Wyeth, priority 2007, published 2008).

Target: T1, P-selectin/PSGL-1 interaction (Homo sapiens, UniProt P16109)
T1 construct: comprised of the lectin and epidermal growth factor-like (EGF) domains expressed in CHO cells; made in house; host or cells: CHO cells (P-LE)
T1 sequence (P16109 42-198): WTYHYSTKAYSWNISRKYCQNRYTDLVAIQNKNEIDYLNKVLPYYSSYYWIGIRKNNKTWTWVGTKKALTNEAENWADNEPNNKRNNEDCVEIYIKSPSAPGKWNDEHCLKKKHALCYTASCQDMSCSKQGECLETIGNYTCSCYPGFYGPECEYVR
Test: Biacore P-Selectin/PSGL-1 Inhibition Assay (surface plasmon resonance)
Assay type: binding
Conditions: 250 uM test compound, 500 nM P.LE, immobilized PSGL-1 19ek, 10% DMSO, pH 7.4
Outline: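 Biotinylated monomeric human PSGL-1 "19ek" on streptavidin chip (600–700 RU); compounds preincubated 1 h, then mixed with 500 nM P-LE (lectin-EGF, CHO-expressed) at 250 or 500 μM compound, 10% DMSO, HEPES buffer with 1 mM CaCl2/MgCl2, pH 7.4. SPR at 25 °C; percent binding inhibition from double-referenced signals.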

| SMILES | inhibition at 250 µM |
| --- | --- |
| O=C(O)c1c(O)c(C2(c3ccc(C(F)(F)F)cc3)CC2)nc2c3c(ccc12)CCCC3 [Compound 93, 3-hydroxy-2-(1-(4-(trifluoromethyl)phenyl)cyclopropyl)-7,8,9,10-tetrahydrobenzo[h]quinoline-4-carboxylic acid] | 33% |
| Cc1cc(C(F)(F)F)c2nc(C3(c4ccc(Cl)cc4)CC3)c(O)c(C(=O)O)c2c1 [Compound 94, 2-(1-(4-chlorophenyl)cyclopropyl)-3-hydroxy-6-methyl-8-(trifluoromethyl)quinoline-4-carboxylic acid] | 65% |
| O=C(O)c1c(O)c(C2(c3ccc(Cl)cc3)CC2)nc2c(C(F)(F)F)cc(Cl)cc12 [Compound 95, 6-chloro-2-(1-(4-chlorophenyl)cyclopropyl)-3-hydroxy-8-(trifluoromethyl)quinoline-4-carboxylic acid] | ≤ 10% |
| O=C(O)c1c(O)c(C2(c3ccc(Cl)cc3)CC2)nc2c(C(F)(F)F)cc(-c3ccccc3)cc12 [Compound 96, 2-(1-(4-chlorophenyl)cyclopropyl)-3-hydroxy-6-phenyl-8-(trifluoromethyl)quinoline-4-carboxylic acid] | ≤ 10% |
| Cc1cc(C(F)(F)F)cc2c(C(=O)O)c(O)c(C3(c4ccc(Cl)cc4)CC3)nc12 [Compound 97, 2-(1-(4-chlorophenyl)cyclopropyl)-3-hydroxy-8-methyl-6-(trifluoromethyl)quinoline-4-carboxylic acid] | 40% |
| CCc1cc(C(F)(F)F)c2nc(C3(c4ccc(Cl)cc4)CC3)c(O)c(C(=O)O)c2c1 [Compound 98] | ≤ 10% |
| CCc1cc(C(F)(F)F)cc2c(C(=O)O)c(O)c(C3(c4ccc(Cl)cc4)CC3)nc12 [Compound 99, 2-(1-(4-chlorophenyl)cyclopropyl)-8-ethyl-3-hydroxy-6-(trifluoromethyl)quinoline-4-carboxylic acid] | ≤ 10% |
| O=C(O)c1c(O)c(C2(c3ccc(Cl)cc3)CC2)nc2c(-c3ccccc3)cc(C(F)(F)F)cc12 [Compound 100, 2-(1-(4-chlorophenyl)cyclopropyl)-3-hydroxy-8-phenyl-6-(trifluoromethyl)quinoline-4-carboxylic acid] | ≤ 10% |
| Cc1cc(C(F)(F)F)c2nc(C3(c4ccccc4)CC3)c(O)c(C(=O)O)c2c1 [Compound 101, 3-hydroxy-6-methyl-2-(1-phenylcyclopropyl)-8-(trifluoromethyl)quinoline-4-carboxylic acid] | 40% |
| O=C(O)c1c(O)c(C2(c3ccccc3)CC2)nc2c(C(F)(F)F)cc(-c3ccccc3)cc12 [Compound 102, 3-hydroxy-6-phenyl-2-(1-Phenylcyclopropyl)-8-(trifluoromethyl)quinoline-4-carboxylic acid] | ≤ 10% |
| O=C(O)c1c(O)c(C2(c3ccc(Cl)cc3)CC2)nc2c(C(F)(F)F)cc(Br)cc12 [Compound 103, 6-bromo-2-(1-(4-chlorophenyl)cyclopropyl)-3-hydroxy-8-(trifluoromethyl)quinoline-4-carboxylic acid] | ≤ 10% |
| CCc1cc(C(F)(F)F)c2nc(C3(c4ccccc4)CC3)c(O)c(C(=O)O)c2c1 [Compound 104, 6-ethyl-3-hydroxy-2-(1-phenylcyclopropyl)-8-(trifluoromethyl)quinoline-4-carboxylic acid] | 40% |
| O=C(O)c1c(O)c(C2(c3ccc(Cl)cc3)CC2)nc2c(C(F)(F)F)cc(C(F)(F)F)cc12 [Compound 105, 3-hydroxy-2-(1-(4-chlorophenyl)cyclopropyl)-6,8-bis(trifluoromethyl)quinoline-4-carboxylic acid] | ≤ 10% |
| O=C(O)c1c(O)c(C2(c3ccccc3)CC2)nc2c(C(F)(F)F)cc(C(F)(F)F)cc12 [Compound 106] | 41% |
| O=C(O)c1c(O)c(C2(c3ccccc3)CC2)nc2c(C(F)(F)F)cc(Br)cc12 [Compound 107, 6-bromo-3-hydroxy-2-(1-phenylcyclopropyl)-8-(trifluoromethyl)quinoline-4-carboxylic acid] | 41% |
| O=C(O)c1c(O)c(C2(c3ccc(Cl)cc3)CC2)nc2c(C(=O)O)cccc12 [Compound 108, 2-(1-(4-chlorophenyl)cyclopropyl)-3-hydroxyquinoline-4,8-dicarboxylic acid] | 12% |
| O=C(O)c1c(O)c(C2(c3ccc(Cl)cc3)CC2)nc2c(C3CC3)cccc12 [Compound 109, 2-[1-(4-chloro-phenyl)-cyclopropyl]-8-cyclopropyl-3-hydroxy-quinoline-4-carboxylic acid] | 57% |

Other lines, results leading:

| inhibition at 250 µM | SMILES |
| --- | --- |
| 13% | O=C(O)c1c(O)c(C2(c3ccccc3)CC2)nc2c(C3CC3)cccc12 [Compound 110, 8-cyclopropyl-3-hydroxy-2-(1-phenyl-cyclopropyl)-quinoline-4-carboxylic acid] |
| 46% | O=C(O)c1c(O)c(CC2(c3ccccc3)CC2)nc2c(C(F)(F)F)cccc12 [Compound 111, 3-hydroxy-2-(1-phenyl-cyclopropylmethyl)-8-trifluoromethyl-quinoline-4-carboxylic acid] |
| 43% | O=C(O)c1c(O)c(C2(Cc3ccccc3)CC2)nc2c(C(F)(F)F)cccc12 [Compound 112, 2-(1-benzyl-cyclopropyl)-3-hydroxy-8-trifluoromethyl-quinoline-4-carboxylic acid] |
| 24% | Cc1ccc(C2(c3nc4c(C)c(C)ccc4c(C(=O)O)c3O)CC2)cc1 [Compound 113, 3-hydroxy-7,8-dimethyl-2-(1-p-tolyl-cyclopropyl)-quinoline-4-carboxylic acid] |
| 69% | CC(C)(c1ccccc1)c1nc2c3c(ccc2c(C(=O)O)c1O)CCCC3 [Compound 114, 3-hydroxy-2-(2-phenylpropan-2-yl)-7,8,9,10-tetrahydrobenzo[h]quinoline-4-carboxylic acid] |
| 60% | Cc1ccc2c(C(=O)O)c(O)c(C(C)(C)c3ccccc3)nc2c1C [Compound 115, 3-hydroxy-7,8-dimethyl-2-(2-phenylpropan-2-yl)quinoline-4-carboxylic acid] |
| 68% | CC(C)c1cccc2c(C(=O)O)c(O)c(C(C)(C)c3ccccc3)nc12 [Compound 116, 3-hydroxy-8-isopropyl-2-(2-phenylpropan-2-yl)quinoline-4-carboxylic acid] |
| 55% | CC(C)(c1ccccc1)c1nc2c(C(F)(F)F)cccc2c(C(=O)O)c1O [Compound 117, 3-hydroxy-2-(2-phenylpropan-2-yl)-8-(trifluoromethyl)quinoline-4-carboxylic acid] |
| ≤ 10% | CC(C)c1cccc2c(C(=O)O)c(O)c(C(C)(C)c3ccc(Cl)cc3)nc12 [Compound 118, 2-(2-(4-Chlorophenyl)propan-2-yl)-3-hydroxy-8-isopropylquinoline-4-carboxylic acid] |
| ≤ 10% | CC(C)(c1ccc(Cl)cc1)c1nc2c(C(F)(F)F)cccc2c(C(=O)O)c1O [Compound 119, 2-(2-(4-Chlorophenyl)propan-2-yl)-3-hydroxy-8-(trifluoromethyl)quinoline-4-carboxylic acid] |
| ≤ 10% | CC(C)(c1ccc(Cl)cc1)c1nc2c3c(ccc2c(C(=O)O)c1O)CCCC3 [Compound 120, 2-(2-(4-Chlorophenyl)propan-2-yl)-3-hydroxy-7,8,9,10-tetrahydrobenzo[h]quinoline-4-carboxylic acid] |
| 56% | Cc1ccc2c(C(=O)O)c(O)c(C(C)(C)c3ccc(Cl)cc3)nc2c1C [Compound 121, 2-(2-(4-Chlorophenyl)propan-2-yl)-3-hydroxy-7,8-dimethylquinoline-4-carboxylic acid] |
| ≤ 10% | CC(C)(c1ccc(Cl)cc1)c1nc2c(C(O)(C(F)(F)F)C(F)(F)F)cccc2c(C(=O)O)c1O [Compound 122, 2-(2-(4-chlorophenyl)propan-2-yl)-8-(1,1,1,3,3,3-hexafluoro-2-hydroxypropan-2-yl)-3-hydroxyquinoline-4-carboxylic acid] |
| 49% | CC(c1ccccc1)c1nc2c(C(F)(F)F)cccc2c(C(=O)O)c1O (stereo not shown) [Compound 123, 3-hydroxy-2-(1-phenylethyl)-8-(trifluoromethyl)quinoline-4-carboxylic acid] |
| ≤ 10% | CC(c1ccc(Cl)cc1)c1nc2c3c(ccc2c(C(=O)O)c1O)CCCC3 (stereo not shown) [Compound 124, 2-(1-(4-chlorophenyl)ethyl)-3-hydroxy-7,8,9,10-tetrahydrobenzo[h]quinoline-4-carboxylic acid] |
| 90% | CC(c1ccccc1)c1nc2c3c(ccc2c(C(=O)O)c1O)CCCC3 (stereo not shown) [Compound 125, 3-Hydroxy-2-(1-phenylethyl)-7,8,9,10-tetrahydrobenzo[h]quinoline-4-carboxylic acid] |
| 61% | CCC(c1ccccc1)c1nc2c(C(F)(F)F)cccc2c(C(=O)O)c1O (stereo not shown) [Compound 126, 3-Hydroxy-2-(1-phenylpropyl)-8-(trifluoromethyl)quinoline-4-carboxylic acid] |
| 65% | CCC(c1ccccc1)c1nc2c(C(C)C)cccc2c(C(=O)O)c1O (stereo not shown) [Compound 127, 3-Hydroxy-8-isopropyl-2-(1-phenylpropyl)quinoline-4-carboxylic acid] |
| 64% | CCC(c1ccccc1)c1nc2c(C)c(C)ccc2c(C(=O)O)c1O (stereo not shown) [Compound 128, 3-Hydroxy-7,8-dimethyl-2-(1-phenylpropyl)quinoline-4-carboxylic acid] |
| 60% | CC(C)C(c1ccccc1)c1nc2c(C(F)(F)F)cccc2c(C(=O)O)c1O (stereo not shown) [Compound 129, 3-Hydroxy-2-(2-methyl-1-phenylpropyl)-8-(trifluoromethyl)quinoline-4-carboxylic acid] |
